{"source": "patent US4748274A", "about": "“4-hydroxy-4-(substituted alkenyl)cyclohexanecarboxylic acids” (Merrell Dow Pharmaceuticals Inc., priority 1986, dated 1988)", "key": {"[1]": {"molecular_target": "T1, leukotriene D4 (longitudinal muscle of guinea pig ileum) (Cavia porcellus, UniProt Q2NNR5)", "T1 construct": "The longitudinal muscle was then carefully dissected from the circular muscle of the ileum; from tissue; host or cells: guinea pig terminal ileum, longitudinal muscle segments", "T1 sequence (Q2NNR5 1-340)": "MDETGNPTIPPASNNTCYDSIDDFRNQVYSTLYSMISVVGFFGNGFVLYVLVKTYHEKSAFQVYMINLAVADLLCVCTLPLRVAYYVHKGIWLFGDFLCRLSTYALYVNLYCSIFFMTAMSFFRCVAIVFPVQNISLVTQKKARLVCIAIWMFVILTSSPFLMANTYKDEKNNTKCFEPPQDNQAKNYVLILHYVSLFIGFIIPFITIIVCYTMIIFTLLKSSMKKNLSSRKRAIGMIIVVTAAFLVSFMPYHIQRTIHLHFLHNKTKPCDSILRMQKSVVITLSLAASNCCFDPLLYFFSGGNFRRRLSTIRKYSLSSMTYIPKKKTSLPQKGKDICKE", "test": "Antagonism of leukotriene D4 contraction, longitudinal muscle of guinea pig ileum", "type": "cell-based", "settings": "LTD4 concentration-response, 15 min preincubation, 1 μM indomethacin, 37° C., Arunlakshana and Schild method; for Kb: read-out: G.P. ILEUM pA2 (LTD4) (converted)", "method": "Longitudinal Muscle of Guinea Pig Ileum\nMale, Hartley-Duncan, guinea pigs were sacrificed by cervical dislocation. The terminal portion of the ileum was removed, rinsed, and placed in Burn's modified Tyrode's solution. The longitudinal muscle was then carefully dissected from the circular muscle of the ileum. The longitudinal muscle was cut into 1-2 cm. segments which were placed in a tissue bath containing oxygenated Burn's modified Tyrode's solution warmed to 37° C. A tension of 1.0 gram was then placed on each segment of muscle. After equilibration for 1 hour, 1 μM Indomethacin was added to each bath. After 5 minutes, each tissue segment was then exposed to a concentration of 60 nM leukotriene D4. This response was then considered to be the initial maximal contraction that each segment will produce. After washing the tissue several times, over a 1 hour period, 1 μM lndomethacin was again added to each bath. After a 5 minute period the test agent or vehicle was added to the bath. After 15 minutes, a concentration-response curve was generated using cumulatively increasing concentrations of leukotriene D4. The concentration-response was then compared to the initial maximum contraction. A test compound was considered active, if at concentrations up to 100 μM, it produces a significant shift to the right of the concentration-response relationship to leukotriene D4. The antagonist activity was quantitated in terms of a pA2 value calculated according to the method described by Arunlakshana and Schild, (Brit. J. Pharmac. Chemotherap. 14; 48, 1959)."}, "[2]": {"molecular_target": "T2, 3H-LTD4 specific receptor (guinea pig lung membranes) (Cavia porcellus, UniProt Q2NNR5)", "T2 construct": "from tissue; host or cells: guinea pig lung membranes", "T2 sequence (Q2NNR5 1-340)": "T1 sequence (Q2NNR5 1-340)", "test": "3H-LTD4 specific receptor binding in guinea pig lung membranes", "settings": "3H-LTD4, 50 mM Tris-HCl pH 7.6, 37° C., 20-40 min; read-out: G.P. LUNG SPECIFIC BINDING IC50", "method": "3H-LTD4 - Specific Receptor Binding in Guinea Pig Lung Membranes\nMale guinea pigs were sacrificed and the lungs were removed and placed in ice cold 50 mM Tris-HCl buffer, pH 7.4. The lungs were then homogenized with a Polytron homogenizer and the homogenate was centrifuged at 1000 g for 10 minutes at 4° C. The supernatant was then centrifuged at 30,000 g for 15 minutes at 4° C. to obtain the membrane pellet. This pellet was resuspended in 50 mM Tris-HCl to provide the working suspension of lung membranes. Binding assays were then carried out in 50 mM Tris-HCl at pH 7.6 and 37° C. using incubation periods of 20-40 min. Separation of bound ^3 H-LTD4 from free ^3 H-LTD4 were performed by rapid vacuum filtration through Whatman GF/B glass fiber filters using ice cold Tris-HCl buffer and three 4 ml washes. Filtration and washing were completed in less than 8 seconds. The radioactivity on the filters was then measured. Specific binding of ^3 H-LTD4 was defined as the binding of ^3 H-LTD4 in the absence of unlabelled LTD4 minus the binding of ^3 H-LTD4 in the presence of 2×10^-7 M unlabelled LTD4. Specific binding of ^3 H-LTD4 was 60-80% of total binding. […] In these tests increasing concentrations of the agent are used to block the ^3 H-LTD4 specific binding. The concentration that reduces the specific binding of ^3 H-LTD4 by 50% is termed the IC50."}, "[3]": {"test_system": "leukotriene D4 (induced bronchoconstriction)", "test": "In vivo leukotriene D4 antagonist activity in anesthetized guinea pigs, modified Konzett-Rossler preparation", "parameters": "species or system guinea pig", "settings": "LTD4 50 or 100 ng/kg i.v.", "method": "In Vivo Biological Activity\nCompounds of the present invention were also tested for in vivo leukotriene D4 antagonist activity in anesthetized guinea pigs using a modified Konzett-Rossler preparation. Specifically, the guinea pigs were anesthetized with sodium pentobarbital and surgically prepared for artificial ventilation by a constant volume respirator. The inflation pressure produced by the respirator was measured for each inflation of the guinea pigs' lungs. Increases in inflation pressure above baseline are indicative of bronchoconstriction. After establishing a baseline inflation pressure, bronchoconstriction was induced by an intravenous challenge with 50 or 100 ng/kg leukotriene D4. This response was considered the initial response. After the inflation pressure returned to baseline, the guinea pig was treated with the desired dosage of test compound or vehicle, given intravenously (i.v.) or intraduodenally (i.d.), and rechallenged with leukotriene D at one minute [following i.v. administration]or 5 and 20 minutes [following i.d. administration]. This response was then compared to the initial response and the % inhibition of the response was determined. The results can be summarized as follows, with the inhibition values given for administration by the i.d. route being the greater of the two results obtained."}, "[4]": {"settings": "1.0 mg/kg i.d., greater of results at 5 and 20 minutes"}}}
{"smiles": "CCCCCCCCCCCCC/C=C\\C(SCCC(=O)NCC(=O)O)[C@]1(O)CC[C@H](C(=O)O)CC1", "note": "(relative stereo) [Example 10L, [1α,4β,4(Z)]-4-[1-[[3-[(carboxymethyl)amino]-3oxopropyl]thio]-2-hexadecenyl]-4-hydroxycyclohexanecarboxylic acid]", "values": [{"measurement": "Kb", "setting": "[1]", "result": 2.69, "unit": "nM"}, {"measurement": "IC50", "setting": "[2]", "result": 8000, "unit": "nM"}, {"measurement": "PERCENT INHIBITION", "setting": "[3]; 0.5 mg/kg i.v., rechallenge at one minute", "result": 74, "unit": "%"}, {"measurement": "PERCENT INHIBITION", "setting": "[3]; [4]", "result": 25, "unit": "%"}]}
{"smiles": "CCCCCCCCCCCCCC=CC(SCCC(=O)O)C1(O)CCC(C(=O)O)CC1", "note": "(stereo not drawn) [Example 11, [1α,4β,4(E)]-4-[1-[(2-carboxyethyl)thio-2hexadecenyl]-4-hydroxycyclohexanecarboxylic acid]", "values": [{"measurement": "G.P. ILEUM pA2 (LTD4)", "setting": "[1]", "result": 7.87}]}
{"smiles": "CCCCCCCCCCCCC/C=C\\[C@@H](SCCC(=O)O)[C@]1(O)CC[C@H](C(=O)O)CC1", "note": "[Example 10F]", "values": [{"measurement": "Kb", "setting": "[1]", "result": 0.38, "unit": "nM"}, {"measurement": "PERCENT INHIBITION", "setting": "[3]; 0.0002 mg/kg i.v., rechallenge at one minute", "result": 38, "unit": "%"}, {"measurement": "PERCENT INHIBITION", "setting": "[3]; 0.002 mg/kg i.v., rechallenge at one minute", "result": 52, "unit": "%"}, {"measurement": "PERCENT INHIBITION", "setting": "[3]; 0.02 mg/kg i.v., rechallenge at one minute", "result": 94, "unit": "%"}, {"measurement": "PERCENT INHIBITION", "setting": "[3]; 0.1 mg/kg i.d., greater of results at 5 and 20 minutes", "result": 74, "unit": "%"}, {"measurement": "PERCENT INHIBITION", "setting": "[3]; 0.2 mg/kg i.d., greater of results at 5 and 20 minutes", "result": 93, "unit": "%"}]}
{"smiles": "CCCCCCCCCCCCC/C=C\\C(SCCC(=O)O)[C@]1(O)CC[C@H](C(=O)O)CC1", "note": "(relative stereo) [Example 10H, [1α,4β,4(Z)]-4-[1-[(2-CarbOxyethyl)thio]-2-hexadecenyl]-4-hydroxycyclohexanecarboxylic acid]", "values": [{"measurement": "Kb", "setting": "[1]", "result": 0.245, "unit": "nM"}, {"measurement": "IC50", "setting": "[2]", "result": 8700, "unit": "nM"}]}
{"smiles": "CCCCCCCCCCCCC/C=C\\C(SCCCC(=O)O)[C@]1(O)CC[C@H](C(=O)O)CC1", "note": "(relative stereo) [Example 10J, [1α,4β,4(Z)]-4-[1-[(3-carboxypropyl)thio]-2-hexadecenyl]-4-hydroxycyclohexanecarboxylic acid]", "values": [{"measurement": "Kb", "setting": "[1]", "result": 5.5, "unit": "nM"}, {"measurement": "IC50", "setting": "[2]", "result": 7100, "unit": "nM"}, {"measurement": "PERCENT INHIBITION", "setting": "[3]; 0.5 mg/kg i.d., greater of results at 5 and 20 minutes", "result": 48, "unit": "%"}, {"measurement": "PERCENT INHIBITION", "setting": "[3]; [4]", "result": 53, "unit": "%"}]}
{"smiles": "CCCCCCCCCCCCC/C=C\\C(SCCCC(=O)O)[C@]1(O)CC[C@@H](C(=O)O)CC1", "note": "(relative stereo) [Example 10I, [1α,4α,4(Z)]-4-[1-[(3-carboxypropyl)thio]-2-hexadecenyl]-4-hydroxycyclohexanecarboxylic acid]", "values": [{"measurement": "PERCENT INHIBITION", "setting": "[3]; 0.05 mg/kg i.v., rechallenge at one minute", "result": 19, "unit": "%"}]}
{"smiles": "CCCCCCCCCCCCC/C=C\\[C@@H](SCC(=O)O)[C@]1(O)CC[C@H](C(=O)O)CC1", "note": "[Example 10D, [4(R)-[1α,4β,4(Z)]]-4-[1-[(carboxymethyl)thio]-2-hexadecenyl]-4-hydroxycyclohexanecarboxylic acid]", "values": [{"measurement": "Kb", "setting": "[1]", "result": 0.158, "unit": "nM"}]}
